In patent US20230085307A1, “PYRIDAZINONE COMPOUND AND HERBICIDE” (NISSAN CHEMICAL CORPORATION, priority 2019, published 2023):

Assays:
Chinese sprangletop = assay: Test Example 3: herbicidal effect by foliage application, Wagner pot (Table 18, symbol D); format: in vivo, chinese sprangletop (Leptochloa chinensis); conditions: amount of applied herbicide 320 g/ha
Summary of the method: (§1)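 Plants were sown in alluvial soil held under 0.1–0.5 cm standing water and grown 14 days in a greenhouse at 25–30 °C. An emulsifiable formulation, water-diluted to the set dose, was then sprayed onto the foliage, and effects were scored three weeks later using previously defined criteria.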

directly sowed rice = assay: Test Example 3: effect on crop by foliage application, Wagner pot (Table 18, symbol b); format: in vivo; conditions: amount of applied herbicide 320 g/ha
Method: [Test Example 3] Herbicidal Effect Test by Foliage Application After alluvial soil was placed into 1/10000 are of Wagner pot, water was poured and mixed to form a submerged condition having a water depth of 0.1 cm to 0.5 cm. Seeds of barnyard grass, Chinese sprangletop, rice flat sedge, and rice were sowed and the pot was placed in a greenhouse at 25° C. to 30° C. for growth of the plants. After 14-day growth of the plants, the emulsion agent of the compound of the present invention prepared according to Formulation Example 2 was diluted with water so as to achieve a predetermined herbicide amount, and the diluted emulsion agent was uniformly applied to a foliage part with a small-sized spray. Three weeks after the herbicide application, the effect of the herbicide on each plant was evaluated according to the criteria of Test Example 1.

Italian ryegrass [1] = assay: Test Example 5: herbicidal effect by foliage application, plastic box (Table 20, symbol K); format: in vivo, Italian ryegrass (Lolium multiflorum); conditions: foliage application, 320 g/ha, evaluated three weeks after application
Summary of the method: (§2)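 Post-emergence foliar test in sterilized diluvial soil. Compound applied as water-diluted emulsion at a predetermined rate to 14-day-old plants; evaluation at three weeks.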

persian speedwell = assay: Test Example 4: herbicidal effect by soil treatment (Table 19, symbol R); format: in vivo, Persian speedwell (Veronica persica); conditions: amount of applied herbicide 320 g/ha
Summary of the method: (§3)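 Scoring uses the grading scale of an earlier test, three weeks post-application. Treatment consists of spraying a diluted emulsion formulation across the surface of sterilized diluvial soil in which seeds are buried near 1.5 cm deep; boxes are kept in a greenhouse between 25° C. and 30° C.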

green foxtail = assay: Test Example 4: herbicidal effect by soil treatment (Table 19, symbol G); format: in vivo, green foxtail (Setaria viridis); conditions: amount of applied herbicide 320 g/ha
Summary of the method: as §3

wheat = assay: Test Example 4: effect on crop by soil treatment (Table 19, symbol e); format: in vivo; conditions: amount of applied herbicide 320 g/ha
From the text: [Test Example 4] Herbicidal Effect Test by Soil Treatment
(§4) Sterilized diluvial soil was placed in a plastic box having a length of 21 cm, a width of 13 cm, and a depth of 7 cm. The seeds of each of southern crabgrass, green foxtail, barnyard grass, wild oat, blackgrass, Italian ryegrass, windgrass, velvetleaf, redroot pigweed, lambsquarters, chickweed, false cleavers, persian speedwell, corn, soybean, rice, wheat, beet, and rapeseed were sowed in a spot-like manner and covered with the soil having a thickness of about 1.5 cm. Subsequently, the emulsion agent of the compound of the present invention prepared according to Formulation Example 2 was diluted with water so as to achieve a predetermined herbicide amount, and the diluted emulsion agent was uniformly applied to the surface of the soil with a small-sized spray. The plastic box was placed in a greenhouse at 25° C. to 30° C. for growth of the plants. Three weeks after the herbicide application, the effect of the herbicide on each plant was evaluated according to the criteria of Test Example 1.

chickweed [2] = assay: Test Example 5: herbicidal effect by foliage application, plastic box (Table 20, symbol P); format: in vivo, common chickweed (Stellaria media); conditions: foliage application, 320 g/ha, evaluated three weeks after application
Summary of the method: as §2

velvetleaf [3] = assay: Test Example 4: herbicidal effect by soil treatment (Table 19, symbol M); format: in vivo, velvetleaf (Abutilon theophrasti); conditions: amount of applied herbicide 320 g/ha
Summary of the method: as §3

redroot pigweed = assay: Test Example 5: herbicidal effect by foliage application, plastic box (Table 20, symbol N); format: in vivo, redroot pigweed (Amaranthus retroflexus); conditions: foliage application, 320 g/ha, evaluated three weeks after application
Summary of the method: as §2

soybean = assay: Test Example 5: effect on crop by foliage application, plastic box (Table 20, symbol d); format: in vivo; conditions: 320 g/ha, evaluated three weeks after application
From the text: (§5) [Test Example 5] Herbicidal Effect Test by Foliage Application
as §4, with “Thereafter, the plants were grown in a greenhouse at 25° C. to 30° C. After 14-day growth of the plants,” for “Subsequently,”, “a foliage part” for “the surface of the soil”, “spray.” for “spray. The plastic box was placed in a greenhouse at 25° C. to 30° C. for growth of the plants.”

corn = assay: Test Example 5: effect on crop by foliage application, plastic box (Table 20, symbol c); format: in vivo; conditions: 320 g/ha, evaluated three weeks after application
From the text: as §5
as §4, with “Thereafter, the plants were grown in a greenhouse at 25° C. to 30° C. After 14-day growth of the plants,” for “Subsequently,”, “a foliage part” for “the surface of the soil”, “spray.” for “spray. The plastic box was placed in a greenhouse at 25° C. to 30° C. for growth of the plants.”

chickweed [4] = assay: Test Example 4: herbicidal effect by soil treatment (Table 19, symbol P); format: in vivo, common chickweed (Stellaria media); conditions: amount of applied herbicide 320 g/ha
Summary of the method: as §3

Italian ryegrass [5] = assay: Test Example 4: herbicidal effect by soil treatment (Table 19, symbol K); format: in vivo, Italian ryegrass (Lolium multiflorum); conditions: amount of applied herbicide 320 g/ha
Summary of the method: as §3

barnyard grass [6] = assay: Test Example 4: herbicidal effect by soil treatment (Table 19, symbol H); format: in vivo, barnyard grass (Echinochloa crus-galli); conditions: amount of applied herbicide 320 g/ha
Summary of the method: as §3

velvetleaf [7] = assay: Test Example 5: herbicidal effect by foliage application, plastic box (Table 20, symbol M); format: in vivo, velvetleaf (Abutilon theophrasti); conditions: foliage application, 320 g/ha, evaluated three weeks after application
Summary of the method: as §2

lambsquarters = assay: Test Example 5: herbicidal effect by foliage application, plastic box (Table 20, symbol O); format: in vivo, lambsquarters (Chenopodium album); conditions: foliage application, 320 g/ha, evaluated three weeks after application
Summary of the method: as §2

rapeseed = assay: Test Example 5: effect on crop by foliage application, plastic box (Table 20, symbol g); format: in vivo; conditions: 320 g/ha, evaluated three weeks after application
From the text: as §5
as §4, with “Thereafter, the plants were grown in a greenhouse at 25° C. to 30° C. After 14-day growth of the plants,” for “Subsequently,”, “a foliage part” for “the surface of the soil”, “spray.” for “spray. The plastic box was placed in a greenhouse at 25° C. to 30° C. for growth of the plants.”

barnyard grass [8] = assay: Test Example 3: herbicidal effect by foliage application, Wagner pot (Table 18, symbol H); format: in vivo, barnyard grass (Echinochloa crus-galli); conditions: amount of applied herbicide 320 g/ha
Summary of the method: as §1

southern crabgrass = assay: Test Example 5: herbicidal effect by foliage application, plastic box (Table 20, symbol F); format: in vivo, southern crabgrass (Digitaria ciliaris); conditions: foliage application, 320 g/ha, evaluated three weeks after application
Summary of the method: as §2

melting point: 182 to 184 °C
Compound: COc1ccccc1-c1sc2ccc(C3CC3)cc2c1-c1c(O)c(C)nn(C)c1=O [Compound No. 2-160, 4-(5-cyclopropyl-2-(2-methoxyphenyl)benzo[b]thiophen-3-yl)-5-hydroxy-2,6-dimethylpyridazin-3(2H)-one]
herbicidal effect on D: Chinese sprangletop (Chinese sprangletop): 3 (Herbicidal rate of 40% or more and less than 70%) | effect on crop b: directly sowed rice (directly sowed rice): 0 (Herbicidal rate of 5% or less (almost no effect)) | herbicidal effect on K: Italian ryegrass (criteria 0-5) (Italian ryegrass [1]): 3 (Herbicidal rate of 40% or more and less than 70%) | R: persian speedwell, herbicidal effect rating (persian speedwell): 1 (Herbicidal rate of 5% or more and less than 20%) | G: green foxtail, herbicidal effect rating (green foxtail): 0 (Herbicidal rate of 5% or less (almost no effect)) | e: wheat, effect on crop rating (wheat): 0 (Herbicidal rate of 5% or less (almost no effect)) | herbicidal effect on P: chickweed (criteria 0-5) (chickweed [2]): 5 (Herbicidal rate of 90% or more (almost completely withered)) | M: velvetleaf, herbicidal effect rating (velvetleaf [3]): 0 (Herbicidal rate of 5% or less (almost no effect)) | herbicidal effect on N: redroot pigweed (criteria 0-5) (redroot pigweed): 5 (Herbicidal rate of 90% or more (almost completely withered)) | effect on crop d: soybean (criteria 0-5) (soybean): 3 (Herbicidal rate of 40% or more and less than 70%) | effect on crop c: corn (criteria 0-5) (corn): 0 (Herbicidal rate of 5% or less (almost no effect)) | P: chickweed, herbicidal effect rating (chickweed [4]): 1 (Herbicidal rate of 5% or more and less than 20%) | K: Italian ryegrass, herbicidal effect rating (Italian ryegrass [5]): 0 (Herbicidal rate of 5% or less (almost no effect)) | H: barnyard grass, herbicidal effect rating (barnyard grass [6]): 0 (Herbicidal rate of 5% or less (almost no effect)) | herbicidal effect on M: velvetleaf (criteria 0-5) (velvetleaf [7]): 4 (Herbicidal rate of 70% or more and less than 90%) | herbicidal effect on O: lambsquarters (criteria 0-5) (lambsquarters): 2 (Herbicidal rate of 20% or more and less than 40%) | effect on crop g: rapeseed (criteria 0-5) (rapeseed): 5 (Herbicidal rate of 90% or more (almost completely withered)) | herbicidal effect on H: barnyard grass (barnyard grass [8]): 4 (Herbicidal rate of 70% or more and less than 90%) | herbicidal effect on F: southern crabgrass (criteria 0-5) (southern crabgrass): 0 (Herbicidal rate of 5% or less (almost no effect))
